Measurements published in patent publication US20250340563A1, “FUSED PYRIDAZINE DERIVATIVES AS NLRP3 INHIBITORS” (Takeda Pharmaceutical Company Limited, priority 2022, published 2025).

Experiments:
[1] = target: T1, MDR1 (P-gp) (Homo sapiens, UniProt P08183); test: MDCK-MDR1 assay (apparent permeability and efflux ratio); type: in vitro ADME; details: dog; for efflux ratio at 60 min, 1 µM: pH 7.4, MDCK-MDR1, P-gp mediated efflux ratio, read-out: MDR1 ER; for Papp A→B at 60 min, 1 µM: MDCK-MDR1 monolayer, apical to basolateral, pH 7.4, 60 minutes
T1 construct: expressed in transfected cells; host or cells: Madin-Darby Canine Kidney (MDCK) cells
Method: Madine-Darby Canine Kidney (MDCK) cells transfected with Multidrug resistance protein 1 (MDR1) are maintained in accordance with the provider's instructions in Dulbecco's Modified Eagle media (DMEM, Fisher Scientific Cat #10569044). DMEM is supplemented with 10% heat inactivated fetal bovine serum (Gibco Cat #16000-044), Penicillin-Streptomycin (100 units/mL) (Gibco Cat #15140122) and an inducer of P-gp, colchicine (200 nM) (Sigma Cat #C9754). The cells are seeded onto the apical side of HTS-Transwell-96 Plates (0.4 μm pore size, Corning Cat #3381) at a density of 6.25×10^3 cells per well with 75 μL and 250 μL of DMEM media in apical and basolateral wells, respectively, and are incubated at 37° C./5% CO2. Fresh DMEM media is exchanged in the apical and basolateral compartments after 72 hours and cells are allowed to grow into a monolayer for 144 hours before beginning the experimental incubation. Incubations are performed in Hanks' Balanced Salt Solution (HBSS, Fisher Scientific Cat #14025134) at pH 7.4 with 1% Bovine Serum Albumin (Sigma, Cat #A9418) and 10 mM HEPES (Fisher Scientific, Cat #15630080). DMEM media is removed and cells are rinsed with warm (37° C.) HBSS. HBSS with test compound at 1p M substrate concentration (0.1% v/v DMSO) is added to either the apical or basolateral compartment (75 μL or 250 μL, respectively) and blank HBSS buffer is added to the compartment which lacks test compound in singlicate. The cells are incubated for 60 minutes at 37° C./5% CO2. At the end of the incubation period, 50 μL of sample is removed from each receiver compartment and diluted into 150 μL of acetonitrile (Fisher Scientific, Cat #A996SK4)+0.1% formic acid (Sigma, Cat #F0507). The samples are centrifuged at 2000 rcf for 10 minutes at 4° C., after which 100 μL of supernatant is transferred to a new microplate and diluted with 100 μL of HPLC grade water (Fisher Scientific, Cat #W64). Samples are analyzed using a triple quadrupole mass spectrometer API-5500QTrap (ABSciex, Serial No. AU23291006) along with associated autosampler and high performance liquid chromatography pump instrumentation optimized for the detection of test articles through a Kinetix 2.1×50 mm C18 100 Å column (Phenomenex, Cat #00B-4605-AN).
Apparent permeability (Papp) values and efflux ratio are calculated using the following equations: […]

[2] = test system: NF-κB pathway; test: TNF-α assay in IFN-γ-differentiated, LPS-stimulated THP-1 cells (ELISA); type: cell-based; details: Homo sapiens, 50 ng/mL LPS, 3 hours
In short: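 THP-1 cells differentiated with 25 ng/mL IFN-γ for 24 h, then preincubated 30 min at 37 °C with compound (1:3.16 serial dilutions) in serum-free medium. Stimulated with 50 ng/mL LPS for 3 h; supernatant assayed by human TNF-α ELISA. IC50 from four-parameter logistic fit of % inhibition.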

[3] = target: NLRP3 inflammasome (Homo sapiens, UniProt Q96P20); test: IL-1β assay in IFN-γ-differentiated, LPS-primed, ATP-activated THP-1 cells (ELISA); type: cell-based; details: 50 ng/mL LPS priming, 2.5 mM ATP activation, 2 hours
In short: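 THP-1 cells differentiated with 25 ng/mL IFN-γ for 24 h, then primed with 50 ng/mL LPS for 24 h in serum-free medium. After 30 min compound preincubation (1:3.16 dilution series), inflammasome activated with 2.5 mM ATP for 2 h at 37 °C. Supernatant IL-1β measured by ELISA; IC50 from logistic fit of % inhibition.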

T1 sequence (P08183 whole entry, species assumed): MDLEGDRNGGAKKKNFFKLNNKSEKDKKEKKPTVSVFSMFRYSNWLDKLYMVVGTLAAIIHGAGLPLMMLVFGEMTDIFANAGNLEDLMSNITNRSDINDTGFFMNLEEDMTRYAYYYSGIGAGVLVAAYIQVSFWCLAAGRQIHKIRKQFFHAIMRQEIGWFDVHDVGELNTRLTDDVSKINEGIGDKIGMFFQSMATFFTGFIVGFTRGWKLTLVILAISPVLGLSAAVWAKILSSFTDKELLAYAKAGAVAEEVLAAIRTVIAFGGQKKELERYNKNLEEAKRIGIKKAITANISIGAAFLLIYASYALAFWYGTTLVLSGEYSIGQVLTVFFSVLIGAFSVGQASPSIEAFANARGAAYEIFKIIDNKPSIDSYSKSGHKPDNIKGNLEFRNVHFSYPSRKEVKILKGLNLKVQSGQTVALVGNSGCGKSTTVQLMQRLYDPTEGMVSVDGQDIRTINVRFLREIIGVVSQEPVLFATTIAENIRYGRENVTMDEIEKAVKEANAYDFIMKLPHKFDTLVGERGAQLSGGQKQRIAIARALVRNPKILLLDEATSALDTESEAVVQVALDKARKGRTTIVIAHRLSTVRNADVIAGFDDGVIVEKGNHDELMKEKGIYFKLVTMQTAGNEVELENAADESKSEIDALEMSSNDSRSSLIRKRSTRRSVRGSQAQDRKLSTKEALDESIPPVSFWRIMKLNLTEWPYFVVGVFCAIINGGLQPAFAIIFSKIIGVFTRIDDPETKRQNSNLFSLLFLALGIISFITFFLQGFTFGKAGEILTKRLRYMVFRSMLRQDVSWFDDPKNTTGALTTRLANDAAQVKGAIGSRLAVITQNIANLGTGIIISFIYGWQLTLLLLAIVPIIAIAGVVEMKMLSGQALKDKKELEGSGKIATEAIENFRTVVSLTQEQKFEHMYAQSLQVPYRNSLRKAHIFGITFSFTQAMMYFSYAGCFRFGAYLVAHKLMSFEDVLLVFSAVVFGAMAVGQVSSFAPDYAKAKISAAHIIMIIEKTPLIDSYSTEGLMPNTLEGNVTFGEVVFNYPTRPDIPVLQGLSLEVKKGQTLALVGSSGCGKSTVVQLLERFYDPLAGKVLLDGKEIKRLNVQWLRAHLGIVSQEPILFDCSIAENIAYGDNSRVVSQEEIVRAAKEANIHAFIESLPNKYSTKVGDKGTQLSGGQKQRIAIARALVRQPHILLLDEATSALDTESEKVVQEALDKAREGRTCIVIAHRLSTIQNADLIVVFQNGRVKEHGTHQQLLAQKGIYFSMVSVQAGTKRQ
NLRP3 inflammasome, sequence (Q96P20 whole entry): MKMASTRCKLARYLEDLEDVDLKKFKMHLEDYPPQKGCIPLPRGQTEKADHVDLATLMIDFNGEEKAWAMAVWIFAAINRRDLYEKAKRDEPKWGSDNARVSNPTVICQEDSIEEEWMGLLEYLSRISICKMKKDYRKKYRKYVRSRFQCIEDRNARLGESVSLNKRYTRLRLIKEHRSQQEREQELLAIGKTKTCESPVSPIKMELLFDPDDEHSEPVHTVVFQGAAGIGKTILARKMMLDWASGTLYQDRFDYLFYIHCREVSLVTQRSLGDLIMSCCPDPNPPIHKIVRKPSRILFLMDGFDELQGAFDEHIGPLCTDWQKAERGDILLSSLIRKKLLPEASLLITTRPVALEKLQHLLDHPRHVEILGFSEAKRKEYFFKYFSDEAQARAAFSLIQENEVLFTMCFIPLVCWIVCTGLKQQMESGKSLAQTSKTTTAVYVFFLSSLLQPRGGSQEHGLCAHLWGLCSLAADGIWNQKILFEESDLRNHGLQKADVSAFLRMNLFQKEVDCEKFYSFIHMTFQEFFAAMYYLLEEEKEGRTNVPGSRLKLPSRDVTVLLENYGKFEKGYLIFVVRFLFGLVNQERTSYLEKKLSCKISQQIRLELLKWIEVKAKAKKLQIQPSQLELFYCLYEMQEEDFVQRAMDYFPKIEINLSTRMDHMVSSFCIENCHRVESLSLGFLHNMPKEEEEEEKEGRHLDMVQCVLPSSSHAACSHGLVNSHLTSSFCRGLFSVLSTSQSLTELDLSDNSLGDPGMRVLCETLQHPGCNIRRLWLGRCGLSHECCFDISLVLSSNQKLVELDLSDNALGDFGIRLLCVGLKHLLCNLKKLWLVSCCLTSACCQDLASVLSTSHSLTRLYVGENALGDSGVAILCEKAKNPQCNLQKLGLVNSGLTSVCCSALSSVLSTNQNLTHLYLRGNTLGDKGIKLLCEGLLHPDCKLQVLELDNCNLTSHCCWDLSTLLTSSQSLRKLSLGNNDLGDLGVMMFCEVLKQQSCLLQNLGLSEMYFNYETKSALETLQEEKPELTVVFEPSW

Row | efflux ratio at 60 min, 1 µM [1] | Papp A→B at 60 min, 1 µM [1] | IC50 [2] | IC50 [3] | Structure (SMILES)
1 | 22 | 1.5 ×10⁻⁶ cm/s | > 30000 nM | 2 nM | CN1CCC[C@@H](Nc2nnc(-c3ccc(Cl)cc3O)c3c2COCC3)C1 [Example 225, (R)-5-chloro-2-(4-((1-methylpiperidin-3-yl)amino)-7,8-dihydro-5H-pyrano[3,4-d]pyridazin-1-yl)phenol]
2 | 17 | 1.7 ×10⁻⁶ cm/s | > 30000 nM | 10 nM | Cc1ccc(-c2nnc(N[C@@H]3C[C@@H](F)CN(C)C3)c3c2COCC3)c(O)c1 [Example 201, 2-(1-(((3R,5R)-5-fluoro-1-methylpiperidin-3-yl)amino)-7,8-dihydro-5H-pyrano[3,4-d]pyridazin-4-yl)-5-methylphenol]
